Results published in patent US10597388B2, “Pyridazinone herbicides” (FMC CORPORATION, priority 2014, dated 2020).

Tests used:
Type in all cases: in vivo
[1] = test system: kochia (Kochia scoparia); assay: Test C greenhouse herbicide test, postemergence; conditions: Postemergence
Procedure, shortened: (§1)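 Ratings are visual scores from 0 (no effect) to 100 (complete control), made against controls 13–15 d after treatment. Postemergence sprays were applied in the greenhouse to plants 2–18 cm tall (1- to 4-leaf stage) in peat-moss/vermiculite potting medium.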

[2] = test system: oat, wild (wild oat, Avena fatua); assay: Test C greenhouse herbicide test, postemergence; conditions: Postemergence
Procedure, shortened: as §1

[3] = test system: foxtail, giant (giant foxtail, Setaria faberii); assay: Test C greenhouse herbicide test, pre- and postemergence; conditions: Postemergence
Procedure, shortened: (§2)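 Two application timings: at sowing into a soil/sand blend, and on 2–18 cm seedlings in peat-vermiculite potting mix. A non-phytotoxic, surfactant-containing solvent carried the compounds. Plants were compared with controls and rated visually on 0–100 after 13–15 d.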

[4] = test system: ryegrass, Italian (Italian ryegrass, Lolium multiflorum); assay: as above
Procedure, shortened: as §2

[5] = test system: blackgrass (Alopecurus myosuroides); assay: as above
Procedure, shortened: as §2

[6] = test system: johnsongrass (Sorghum halepense); assay: as above
Procedure, shortened: as §2

[7] = test system: waterhemp (common waterhemp, Amaranthus rudis); assay: as above
Procedure, shortened: as §2

[8] = test system: crabgrass, large (large crabgrass, Digitaria sanguinalis); assay: as above
Procedure, shortened: as §2

[9] = test system: lambsquarters (Chenopodium album); assay: as above
Procedure, shortened: as §2

[10] = test system: corn (Zea mays); assay: as above
Procedure, shortened: as §2

[11] = test system: ragweed (common ragweed, Ambrosia elatior); assay: as above
Procedure, shortened: as §2

[12] = test system: wheat (winter wheat, Triticum aestivum); assay: as above
Procedure, shortened: as §2

[13] = test system: soybean (Glycine max); assay: as above
Procedure, shortened: as §2

[14] = test system: pigweed (Amaranthus retroflexus); assay: as above
Procedure, shortened: as §2

[15] = test system: morningglory (Ipomoea coccinea); assay: as above
Procedure, shortened: as §2

[16] = test system: barnyardgrass (Echinochloa crus-galli); assay: as above
Procedure, shortened: as §2

[17] = 31 g ai/ha, scale 0 to 100 (0 no effect, 100 complete control)
[18] = 125 g ai/ha, scale 0 to 100, 0 is no effect, 100 is complete control
[19] = 250 g ai/ha, scale 0 to 100, 0 no effect, 100 complete control, 13 to 15 d
[20] = Postemergence, 31 g ai/ha, scale 0 to 100 (0 no effect, 100 complete control)
[21] = Postemergence, 125 g ai/ha, scale 0 to 100, 0 is no effect, 100 is complete control
[22] = Postemergence, 250 g ai/ha, scale 0 to 100, 0 no effect, 100 complete control, 13 to 15 d
[23] = Preemergence, 31 g ai/ha, scale 0 to 100, 0 is no effect, 100 is complete control
[24] = Preemergence, 62 g ai/ha, scale 0 to 100, 0 is no effect, 100 is complete control
[25] = Preemergence, 125 g ai/ha, scale 0 to 100, 0 is no effect, 100 is complete control
[26] = Preemergence, 250 g ai/ha, scale 0 to 100 (0 no effect, 100 complete control)
[27] = postemergence, 62 g ai/ha, scale 0 to 100, 0 no effect, 100 complete control

Cc1sc2ccc(Cl)cc2c1-c1c(OS(C)(=O)=O)c(Cl)nn(C)c1=O [Compound 114]
100: Plant response rating, Lambsquarters [9, 21] | Plant response rating, Lambsquarters [9, 22] | Plant response rating, Ragweed [11, 22] | Plant response rating, Pigweed [14, 25] | Pigweed plant response rating [14, 26] | Plant response rating, Morningglory [15, 21] | Plant response rating, Morningglory [15, 22]
80: Plant response rating, Ryegrass, Italian [4, 21] | Waterhemp plant response rating [7, 26] | Crabgrass, Large plant response rating [8, 26] | Plant response rating, Pigweed [14, 20]
60: Plant response rating, Ryegrass, Italian [4, 20] | Plant response rating, Barnyardgrass [16, 25]
0: Plant response rating, Blackgrass [5, 20] | Plant response rating, Blackgrass [5, 23] | Blackgrass plant response rating [5, 27] | Plant response rating, Johnsongrass [6, 23] | Plant response rating, Johnsongrass [6, 24] | Plant response rating, Johnsongrass [6, 25] | Johnsongrass plant response rating [6, 26] | Plant response rating, Crabgrass, Large [8, 23] | Plant response rating, Corn [10, 20] | Plant response rating, Corn [10, 21] | Plant response rating, Corn [10, 22] | Plant response rating, Corn [10, 23] | Corn plant response rating [10, 27] | Plant response rating, Wheat [12, 20] | Plant response rating, Wheat [12, 23] | Plant response rating, Wheat [12, 24] | Plant response rating, Soybean [13, 20] | Plant response rating, Soybean [13, 21] | Plant response rating, Soybean [13, 23] | Plant response rating, Soybean [13, 24]
55: Plant response rating, Waterhemp [7, 21] | Plant response rating, Ragweed [11, 23] | Plant response rating, Morningglory [15, 24]
90: Plant response rating, Kochia [1, 18] | Plant response rating, Ryegrass, Italian [4, 25] | Plant response rating, Lambsquarters [9, 23] | Plant response rating, Lambsquarters [9, 25] | Plant response rating, Ragweed [11, 20] | Plant response rating, Pigweed [14, 24] | Morningglory plant response rating [15, 26]
85: Plant response rating, Oat, Wild [2, 19] | Plant response rating, Foxtail, Giant [3, 19] | Plant response rating, Ryegrass, Italian [4, 24]
40: Plant response rating, Oat, Wild [2, 17] | Plant response rating, Ryegrass, Italian [4, 23] | Plant response rating, Barnyardgrass [16, 21] | Plant response rating, Barnyardgrass [16, 22]
50: Plant response rating, Foxtail, Giant [3, 18] | Plant response rating, Waterhemp [7, 23]
10: Plant response rating, Foxtail, Giant [3, 17] | Blackgrass plant response rating [5, 26] | Plant response rating, Crabgrass, Large [8, 20] | Plant response rating, Barnyardgrass [16, 24]
45: Plant response rating, Waterhemp [7, 22]
95: Plant response rating, Kochia [1, 19] | Plant response rating, Ryegrass, Italian [4, 22] | Ryegrass, Italian plant response rating [4, 26] | Plant response rating, Lambsquarters [9, 20] | Lambsquarters plant response rating [9, 26] | Plant response rating, Ragweed [11, 25] | Plant response rating, Pigweed [14, 21] | Plant response rating, Pigweed [14, 22] | Plant response rating, Morningglory [15, 20] | Barnyardgrass plant response rating [16, 26]
15: Plant response rating, Blackgrass [5, 22] | Plant response rating, Johnsongrass [6, 22] | Plant response rating, Wheat [12, 22]
30: Plant response rating, Kochia [1, 17] | Plant response rating, Barnyardgrass [16, 20]
20: Plant response rating, Crabgrass, Large [8, 21] | Crabgrass, Large plant response rating [8, 27] | Plant response rating, Soybean [13, 25]
35: Wheat plant response rating [12, 26] | Barnyardgrass plant response rating [16, 27]
75: Plant response rating, Waterhemp [7, 24] | Plant response rating, Crabgrass, Large [8, 25] | Plant response rating, Ragweed [11, 24] | Plant response rating, Morningglory [15, 25]
25: Plant response rating, Waterhemp [7, 20] | Plant response rating, Crabgrass, Large [8, 22] | Plant response rating, Morningglory [15, 23]
65: Plant response rating, Oat, Wild [2, 18] | Plant response rating, Waterhemp [7, 25]
5: Plant response rating, Blackgrass [5, 21] | Plant response rating, Blackgrass [5, 24] | Plant response rating, Blackgrass [5, 25] | Plant response rating, Johnsongrass [6, 20] | Plant response rating, Johnsongrass [6, 21] | Plant response rating, Crabgrass, Large [8, 24] | Plant response rating, Corn [10, 24] | Plant response rating, Corn [10, 25] | Corn plant response rating [10, 26] | Plant response rating, Wheat [12, 21] | Plant response rating, Wheat [12, 25] | Plant response rating, Soybean [13, 22] | Plant response rating, Barnyardgrass [16, 23]
98: Plant response rating, Lambsquarters [9, 24] | Plant response rating, Ragweed [11, 21] | Ragweed plant response rating [11, 26] | Plant response rating, Pigweed [14, 23]
